Test systems include A549 NSCLC; CAKI-1 renal; EKVX NSCLC; HOP-92 NSCLC; KM20L2 colon; M14 melanoma; M19-MEL melanoma; NCI-H522 lung; OVCAR-5 ovarian; SF-295 CNS; SK-MEL-5 melanoma; SNB-75 CNS; SNB-78 CNS; TK-10 renal; U251 CNS; XF 498 CNS; NCI-H226 lung; RXF 393 renal; HOP-18 NSCLC.
Assay in all cases: inhibition of tumour cell growth, NCI panel, 48 h

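These data come from cells grown in 96-well plates and exposed to compound for 48 hours at five concentrations. GI50 is the concentration that inhibits growth by half. TGI denotes the concentration required for complete inhibition of growth.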

For the compound `O=C(Nc1nc2ccc([N+](=O)[O-])cc2s1)C(=O)C(C(=O)c1ccccc1F)C1OC(=O)c2ccccc21` (stereo unspecified), the TGI was over 100 µM with A549 NSCLC; 98.5 µM in the assay on CAKI-1 renal; 73.4 µM with EKVX NSCLC; over 100 µM in the assay with HOP-92 NSCLC; over 100 µM in the assay with KM20L2 colon; over 100 µM in the assay on M14 melanoma. The TGI in the assay with M19-MEL melanoma is over 100 µM; with NCI-H522 lung, 51.8 µM; with OVCAR-5 ovarian, over 100 µM; in the assay with SF-295 CNS, over 100 µM; in the assay on SK-MEL-5 melanoma it was over 100 µM; with SNB-75 CNS, 74.5 µM. The TGI in the assay on SNB-78 CNS was over 100 µM; in the assay with TK-10 renal, over 100 µM; with U251 CNS, 41.3 µM; in the assay on XF 498 CNS, over 100 µM.

Regarding `CCCc1c(-c2ccccc2)[nH]c2ccccc2c1=O`, the TGI in the assay on EKVX NSCLC, in the assay with HOP-92 NSCLC, in the assay on M14 melanoma, in the assay with NCI-H226 lung, with OVCAR-5 ovarian and with RXF 393 renal was over 100 µM throughout. In addition, the TGI in the assay on SF-295 CNS, with TK-10 renal and with U251 CNS was over 100 µM throughout.

In the case of `O=C1OC2(CC1C1(O)C3CC4CC(C3)CC1C4)C1CC3CC(C1)CC2C3` (stereo unspecified), the TGI with A549 NSCLC was over 100 µM; with HOP-18 NSCLC it was 35.8 µM; with M14 melanoma, over 100 µM; in the assay with M19-MEL melanoma, over 100 µM; with NCI-H226 lung it was over 100 µM; with RXF 393 renal it was over 100 µM. In addition, the TGI is 73.1 µM in the assay with SF-295 CNS; over 100 µM with SK-MEL-5 melanoma; over 100 µM in the assay on SNB-75 CNS; over 100 µM in the assay with SNB-78 CNS; over 100 µM with TK-10 renal; over 100 µM in the assay with XF 498 CNS.

Take `Cc1ccc(C2OC(COCc3ccc(Cl)cc3)C(OCc3ccc(Cl)cc3)C2O)cc1` (stereo unspecified): the TGI in the assay with A549 NSCLC is 30.1 µM; in the assay with CAKI-1 renal, 38.3 µM; in the assay with EKVX NSCLC it was 40 µM; in the assay with HOP-18 NSCLC it was over 100 µM; in the assay on HOP-92 NSCLC, 15.6 µM; in the assay on KM20L2 colon, 56.1 µM. Besides, the TGI was 38.1 µM in the assay with M19-MEL melanoma; 38.5 µM with NCI-H226 lung; over 100 µM with OVCAR-5 ovarian; 10.8 µM in the assay with RXF 393 renal; 32 µM in the assay on SF-295 CNS; 25.9 µM in the assay on SK-MEL-5 melanoma. Also, the TGI was 29.6 µM in the assay with SNB-78 CNS, 29.7 µM in the assay on TK-10 renal, 34.2 µM in the assay on U251 CNS and 22.6 µM in the assay on XF 498 CNS.

Regarding `N#C[C@H](OC1OC(COC2OC(CO)C(O)C(O)C2O)C(O)C(O)C1O)c1ccccc1` (stereo partly specified), the TGI in the assay on A549 NSCLC, with CAKI-1 renal, with EKVX NSCLC, in the assay on HOP-18 NSCLC, in the assay with HOP-92 NSCLC and with KM20L2 colon was over 250 µM each time. Moreover, the TGI with M19-MEL melanoma, in the assay on NCI-H226 lung, with NCI-H522 lung, in the assay with OVCAR-5 ovarian, with RXF 393 renal and in the assay on SF-295 CNS was over 250 µM each time. Further, the TGI is over 250 µM in the assay on SK-MEL-5 melanoma; over 250 µM in the assay on SNB-75 CNS; over 250 µM in the assay with SNB-78 CNS; over 250 µM in the assay on U251 CNS; over 25 µM in the assay with XF 498 CNS. For the same compound, the GI50 in the assay on HOP-92 NSCLC is over 250 µM.

With `O=C(O)c1cc2c(ncc3c(=O)n(-c4ccccc4)[nH]c32)s1`, the TGI with A549 NSCLC, with CAKI-1 renal, in the assay with EKVX NSCLC, in the assay with HOP-18 NSCLC, with HOP-92 NSCLC and with KM20L2 colon was over 100 µM throughout. The TGI in the assay with M14 melanoma, in the assay on M19-MEL melanoma, in the assay with NCI-H226 lung, with NCI-H522 lung, in the assay with OVCAR-5 ovarian and in the assay on RXF 393 renal was over 100 µM each time. For the same compound, the TGI with TK-10 renal, in the assay with U251 CNS and in the assay on XF 498 CNS was over 100 µM throughout.

The values are drawn from PubChem BioAssay (NCI).
